The results in this text go back to a melting point compilation (Tetko et al.; mined from patent text by program, amines drawn as free bases though some values may be those of a salt).

Broadly, the melting point is the temperature of the solid-liquid transition. The compound `COc1ccccc1N1CCN(C(=O)Nc2cc(C(C)O)c(C)nc2OC)CC1` (stereo not given) registered a melting point of 88 to 90 °C.
`C(=Cc1ccc(-c2noc3ccccc23)cc1)c1ccc(-c2nc(-c3ccccc3)no2)cc1` came in with a melting point of 216 to 217 °C.
The result for `C=C(C)C(=O)OCCCOc1ccc(OC(=O)C(=C)C)cc1` reads 58 °C.
With `CCCCn1c(=O)n(CCC)c(=O)c2c(N)n(CCCl)nc21`, the melting point was in the range of 118 to 121 °C.
Compound `CC(C)(C)OC(=O)NC(Cc1ccccc1)C(=O)Oc1ccc(/C=c2\[nH]c(=O)/c(=C/c3ccccc3)[nH]c2=O)nc1` (stereo not given) came in with a melting point of 188 °C.
In turn, `COc1cc(N)c(Cl)cc1C(=O)NC1CCN(CC2CCN(C(=O)c3ccco3)CC2)CC1` gave a melting point of 179 to 181 °C.
For `CS(=O)(=O)c1ccc(Nc2cc(N3CCOCC3)nc(-c3ccccc3)n2)cc1`, the melting point is 238 to 240 °C.
In turn, `O=C1OC(=Nc2ccc(F)cc2F)C2=C1CCCC2` gave a melting point of 81 to 84 °C.
In the case of `N#Cc1cc(-c2ccoc2)c2ccc(COc3cc(F)cc(-c4ccoc4)c3)cc2n1`, the melting point was 156 to 159 °C.
Consider `COC(=O)C1=Cc2cc(Cl)ccc2OC1`, for which the melting point lay within 106 to 109 °C.
Regarding `CP(C)(=O)CN1CCC(Oc2c(F)c(F)c(F)c(F)c2F)CC1`, the melting point lay in the range of 120 to 123 °C.
`OC(CCn1ccnc1)c1ccc(Br)cc1` (stereo not given): the melting point was in the range of 104 to 110 °C.
As to `Fc1cnc(Nc2nc3c(s2)CCN(CCCN2CCC(F)(F)CC2)c2n[nH]cc2-3)nc1`, the melting point is 238 to 240 °C.
In turn, `COc1ccc(C(=O)Nc2ncnc3c2ncn3[C@H]2CC[C@H](CC(=O)O)C[C@@H]2NC(=O)OC(C)(C)C)cc1` showed a melting point of 238 to 239 °C.
As for `C=CCCC(O)=C(C#N)C(=O)Nc1ccc(Cl)c(C)c1`, the melting point was 134 °C.
Turning to `CCOc1cc(Cc2cnc(N)nc2N)cc2c1OC(C)(C)C=C2c1cccc(F)c1`, the melting point lay within 185 to 186 °C.
On to `C[Si](C)(C)CCCCCC1=C(O)C(=O)c2ccccc2C1=O`, for which the melting point was 73 to 75 °C.
In turn, `COC(=O)CCc1nsc2ccc(-n3c(=O)cc(C(F)(F)F)n(C)c3=O)cc12` had a melting point of 176 to 178 °C.
The result for `O=C(O)c1ccc(/C=C/C(=O)c2ccc(-c3cccs3)cc2)cc1` reads 260 to 265 °C; that for `CC(=O)Oc1c2c(c3ccccc3c1OC(C)=O)N(C(C)=O)c1ccccc1S2`, 213 to 214 °C; that for `CC(=NOCCOc1ccc(CC2SC(=O)N(C(c3ccccc3)(c3ccccc3)c3ccccc3)C2=O)cc1)c1ccc(-c2ccccc2)cc1` (stereo not given), 145 °C.
Compound `CCC1(Cl)Cc2cc(OCC(=O)O)c(Cl)c(Cl)c2C1=O` (stereo not given) yielded a melting point of 185 to 187 °C.
On to `CC(=O)C1=C(C)NC(C)=C(c2nc(CN(C)Cc3ccccc3)no2)C1c1cccc([N+](=O)[O-])c1` (stereo not given), for which the melting point lay in the range of 138 to 139 °C.
For the compound `O=c1c(Cl)c(N2CCC(c3ccccc3)CC2)ccn1Cc1ccc(OC(F)(F)F)cc1`, the melting point was 169 °C.
In turn, `CC(=O)Oc1ccc(-c2cnc(NC(=O)Cc3ccccc3)c(Cc3ccccc3)n2)cc1` came in with a melting point of 228 to 231 °C.
As for `COc1noc2c1CN(C(C)=O)CC2`, the melting point is 40 to 42 °C.
In turn, `CCN(c1ccccc1C)S(=O)(=O)c1cc([N+](=O)[O-])ccc1C` returned a melting point of 78 to 80 °C.
The compound `Nc1cc2c(cc1CCN1CCN(c3cccc(C(F)(F)F)c3)CC1)OCO2` had a melting point of 88 °C.
Compound `CC(C)(C)NC(=O)C(O)c1cccc(Cl)c1` (stereo not given) registered a melting point of 93 to 99 °C.
On to `COC(=O)Cc1ccc(OCCNC(=O)C2Cc3ccccc3N2S(=O)(=O)c2ccc(-c3cc(C(F)(F)F)ccc3F)cc2)cc1` (stereo not given), for which the melting point was in the range of 52 to 55 °C.
Consider `Cc1nnc(-c2ccc3occ(-c4ccc(C(=O)O)cc4Cl)c3c2)o1`, for which the melting point lay within 267 to 268 °C.
On to `O=C1NN(C(=O)Oc2ccc(Cl)cc2)C(c2ccccc2)C1c1ccccc1` (stereo not given), for which the melting point lay within 175 to 177 °C.
`CNC1=NN(C(=O)C(C)(C)C)C(C)(C)S1` showed a melting point of 162 to 164 °C.
With `O=c1[nH]c2c(c(O)c1[N+](=O)[O-])CCCCC2`, the melting point was more than 264 °C.
On to `COc1ccc2nc(SCc3nccc(N4CCOCC4)c3Cl)[nH]c2n1`, for which the melting point turned out to be 210 °C.
For the compound `COCC1CN(c2ccc(C3CCC(OC(C)=O)CC3)cc2)C(=O)O1` (racemic), the melting point was in the range of 78 to 79 °C.
As for `COc1nc(C)c(CC2CC2)c(C(O)c2cc(Cl)cc(C#N)c2)c1C(C)C` (stereo not given), the figure is 237 to 238 °C; as for `CCOC(=O)Cn1c(-c2cc(Cl)ccn2)nc2cccnc21`, 99 to 101 °C; as for `CC(C)c1c(Sc2cccc(Cl)c2)nc(CO)n1C`, 105 to 106 °C.
On to `O=c1ccn([C@H]2[C@H](O)[C@H](O)CC[C@H]2O)c(=O)[nH]1` (racemic), for which the melting point was 246 °C.
As to `CC(=O)OCC1OC(C2=NNC(N)(c3ccc(Cl)c(Cl)c3)O2)C(OC(C)=O)C(OC(C)=O)C1OC(C)=O` (stereo not given), the melting point was in the range of 180 to 181 °C.
For the compound `O=C(CCN1CCN(c2cccc(C(F)(F)F)c2)CC1)c1ccc2c(c1)Cc1cc(C(=O)CCN3CCN(c4cccc(C(F)(F)F)c4)CC3)ccc1O2`, the melting point lay in the range of 155 to 157 °C.
The result for `Cc1cc(Cl)c(N2C(=O)Cc3cc(C)ccc32)c(Cl)c1` reads 153 to 154 °C; that for `COc1ccc(CC2CNC(=O)N2)cc1OC1CCCC1` (stereo not given), 107 to 111 °C; that for `COC(=O)c1ccc(COc2cc(F)cc(C3(OC)CCOCC3)c2)cc1`, 88 to 89 °C.
Take `Cc1cc(-c2cccnc2)n2ncnc2n1`: the melting point lay in the range of 183 to 185 °C.
The compound `COc1cc2oc3ccc(C#N)cc3c2cc1F` came in with a melting point of 206 to 208 °C.
The result for `O=C(O)c1cccc(OCCNC(=O)C2Cc3ccccc3N2S(=O)(=O)c2ccc(-c3cccc(C(F)(F)F)c3)cc2)c1` (stereo not given) reads 85 to 92 °C.
As to `Cc1nn(-c2c(Cl)cc(C(F)(F)F)cc2Cl)nc1CC#N`, the melting point fell in the range of 103 to 104 °C.
`CCN(CC)c1ccc(C(c2ccc(N(C)C)cc2C(=O)O)c2ccc(N(C)C)cc2N(C)C)cc1` (stereo not given) came in with a melting point of 128 to 130 °C.
Turning to `CN1CCC(N(Cc2cccn2C)S(=O)(=O)c2ccc(Nc3nccc(Nc4ccc(F)cc4)n3)cc2)CC1`, the melting point is 129 °C.
The compound `CS(=O)(=O)c1ccc(N2CC(O)(C(F)(F)F)N=C2c2ccccn2)cc1` (stereo not given) showed a melting point of 195 to 198 °C.
Regarding `O=C(Nc1ccc(Br)cc1CBr)C(F)(F)F`, the melting point lay within 133 to 135 °C.
Compound `CCCOc1ccc(CCCOc2nn(Cc3ccccc3)cc2CC(=O)O)c(Oc2ncc(C(F)(F)F)cc2Cl)c1` displayed a melting point of 96.5 to 97.5 °C.
The result for `C#Cc1ccnc(-c2ccc(-c3ccccc3C#C)c([N+](=O)[O-])c2)c1` reads 144 to 146 °C; that for `CC(=O)N[C@H]1CCC(=O)N2CCC[C@@H](C(=O)OC(C)(C)C)N2C1=O`, 162 to 163 °C; that for `O=C(Nc1c[nH]nc1C(=O)NCc1ccccc1)c1ccccn1`, 204 to 205 °C.
The result for `CC(C)(C)OC(=O)NCC12CN(c3c(F)cc4c(=O)c(C(=O)O)cn(C5CC5)c4c3Cl)CC1CCO2` (stereo not given) reads 111 to 113 °C.
The result for `Cc1cc(C)c(-c2cc3cnc(N)nc3nc2N)c(C)c1` reads 276 to 282 °C; that for `Cc1cc(C)c2c(n1)N(CCN(C)C)C(=O)N(C)C2`, 105 to 107 °C; that for `CCn1c(=O)c2[nH]c(/C=C/c3cccc([N+](=O)[O-])c3)nc2n(CC)c1=O`, more than 270 °C.
The compound `CCOC(=O)c1csc(C=O)n1` showed a melting point of 65 to 67 °C.
For the compound `CCn1c(-c2ccnc(N)c2)nnc1C(C)(C)Oc1c(F)cc(Cl)cc1F`, the melting point was found to be 150 °C.
Take `Fc1nc(Cl)c2cc[nH]c2n1`: the melting point stood at 180 °C.
In the case of `O=C(Nc1ccccc1)N1C(=S)C2(CCCCC2)NC12CCCCC2`, the melting point was 143 to 144 °C.
`CN(C(=O)c1n[nH]c2c(=O)[nH]c3cc(Cl)ccc3c(=O)c12)c1ccccc1` had a melting point of 308 °C.
With `CC(C)(C)OC(=O)NCCc1ccc(OCCC2Oc3ccccc3N(Cc3ccccc3Cl)C2=O)cc1` (stereo not given), the melting point was 108 to 111 °C.
`CC(C)=NNc1cc2c(nn1)CCN(C(=O)CC(c1ccccc1)c1ccccc1)C2` returned a melting point of 172 to 175 °C.
As for `CC(=O)Oc1cc(C)cc2c1C1=C(CCC(C)C1)C(C)(C)O2` (stereo not given), the figure is 115 to 119 °C.
The result for `Clc1ccc2c3c(cccc13)C(NCCCCCn1ccnc1)=N2` reads 132 to 134 °C; that for `CCCCCC(=O)Nc1ncc(OC)cn1`, 102 °C; that for `COc1cccc(C2CCCN2S(=O)(=O)c2ccc(Cl)cc2)c1` (racemic), 95 °C.
For the compound `CN1CC(c2cc(OCc3ccccc3)ncn2)=C(O)C1=O`, the melting point lay within 203 to 204 °C.
Turning to `Nc1nc[nH]c1-c1n[nH]c(-c2ccc(-c3ccccc3)cc2)n1`, the melting point stood at 230 °C.
The result for `CN(C)C=C1CCc2ccn(Cc3ccccc3)c2C1=O` reads 116 to 118 °C; that for `Cc1ccc(N(C(=O)CCl)c2c(F)cccc2Cl)cc1`, 80 to 83 °C; that for `CCCCCCCCCCCCCCOc1ccc(CC(=O)Nc2cccc(I)c2)cc1`, 108 to 110 °C.
Regarding `Cc1cccc(-c2nc(N)sc2-c2ccnc(-c3ccc(CN4CCOCC4)cc3)c2)n1`, the melting point was 190 to 192 °C.
Take `Cc1ccc([N+](=O)[O-])c(C=C2NC(=O)NC2=O)c1C`: the melting point was 293 to 295 °C.
Regarding `O=c1n(Cc2ccc([N+](=O)[O-])cc2)c2ccccc2n1Cc1ccc(C(F)(F)F)cc1`, the melting point fell in the range of 134 to 137 °C.
As for `CC(C)(C)OC(=O)C(C)(C)Oc1ccc2c(c1)Nc1ccccc1S2`, the figure is 138 to 140 °C; as for `CC(C)(C)c1cc(OCCCCCCC(=O)O)cc(C(C)(C)C)c1`, 88 to 90 °C; as for `C=C(C#N)CN1CCC(C(=O)O)CC1`, 109 to 111 °C.
Turning to `C#CC(C)OS(=O)(=O)c1ccc(C)cc1` (stereo not given), the melting point lay within 49 to 51 °C.
In the case of `COc1cc2c(c3c1OC(C)(C)C3)C(c1cccc(-c3ccc(C(=O)O)cc3)c1)=NC(C)(C)C2`, the melting point lay within 161 to 165 °C.
